US20020103228A1, “Composition and method for use of pyridinium derivatives in cosmetic and therapeutic applications” (TORRENT PHARMACEUTICALS LTD., priority 1999, published 2002)
Several values for one entry are separate records, joined by “and”; a condition that tells them apart may be missing. Identical values can stand only once.

Tests used:
[1] = target: T1, AGE-BSA (Bos taurus, UniProt P02769); assay: In-vitro AGE breaking activity by ELISA; format: biochemical, Bovine; conditions: 37° C., 24 hours
T1 construct: Bovine serum albumin (fraction V) (BSA); from tissue; host or cells: bovine serum (fraction V); glycated in house with 1.6 M glucose at 37 °C for 16 weeks
Protocol: AGE breaking activity has been confirmed by the screening procedure as mentioned below:
Methods of experiment: Elisa (Enzyme Linked Immunosorbent Assay)
160 mg/ml of protein, bovine serum albumin, BSA and 1.6M glucose sugar were dissolved in phosphate buffered saline, PBS. Sodium azide was added at 0.02% concentration as a preservative. The solution was filtered asceptically through a […] filter and kept for aging at 37° C. for 16 weeks. After 16 weeks the solution was dialyzed against PBS, aliquoted and stored at −20° C.
To determine the AGE breaking activity, 10 μg/ml of the 16 weeks AGE-BSA was incubated with different concentrations of the test compounds at 37° C. for 24 hours and AGE breaking activity of the test compounds by ELISA was determined.
ELISA was performed as follows
1. Different concentrations of 16 weeks AGE-BSA were coated on a microtiter plate as standard. Each concentration is coated in triplicates.
2. The test samples were coated on microtiter plate at a concentration of 5 ng to 20 ng per well in triplicates
3. The plate was incubated at 37° C. for one hour.
4. After incubation the plate was washed with PBST (PBS with 0.05% Tween 20).
5. Blocking with 5% skimmed milk in PBS at 37° C. for one hour was done.
6. The plate was washed with PBST.
7. Primary antibody against AGE-BSA was added and the plate is incubated at 37° C. for one hour.
8. The plate was washed with PBST
9. Secondary antibody anti rabbit HRPO (Horse-Radish Per Oxidase) conjugate was added and the plate is incubated at 37° C. for one hour.
10. The plate was washed with PBST.
11. Colour development with OPD (orthophenylenediamine dihydrochloride) and hydrogen peroxide was done.
12. OD (optical density) at (450 nm reading-620 nm reading) was measured after incubation at 37° C. for 15 minutes with Microplate ELISA Reader
The breaker activity of the compounds were determined by the following formula: [formula]
OD450-620Control=Absorbance of 20 ng AGE-BSA after incubation at 37° C. for 24 hours without test compound
OD450-620Test=Absorbance of 20 ng AGE-BSA after incubation at 37° C. for 24 hours with required concentration of test compound
Using specific examples, the % AGE breaking activity was calculated and recorded in Table 2.

[2] = Free radical scavenging activity on ABTS radical cation; format: biochemical
Protocol: This method measures the relative ability of free radical scavenging substances to scavenge the ABTS^.+ i.e. 2,2-Azino-bis-(3-ethyl benzo thiazoline-6-sulfonate) radical cation as compared to a standard amount of standard or free radical scavengers antioxidants. Incubation of ABTS with Peroxidase (metmyoglobin) and hydrogen peroxide results in the production of radical cation ABTS^.+. This species is blue-green in colour and can be detected at 730 nm. Antioxidants or free radical scavengers in the added sample that causes suppression of the color to a degree that is proportional to their concentration.
Preparation of Buffer Solutions
A. Phosphate Citrate Buffer (pH 5.0). 48.5 ml of 0.1M citric acid with sufficient 0.2M disodium hydrogen phosphate to produce 100 ml.
B. Phosphate Buffer Saline (PBS): Dissolve 40.0 g of NaCl, 1.0 g of KCl, 1.0 g of KH2PO4 and 3.05 g of Na2HPO4 in 1 liter milli-Q water. Dilute 200 ml of above solution to 1 liter with milli-Q water (pH 7.4-7.6).
C. 3 μM stock solution of Peroxidase was prepared in phosphate buffer saline pH 7.4(PBS).
D. 1.08 mM stock solution of Hydrogen peroxide was prepared in phosphate buffer saline pH 7.4 (PBS).
Preparation of ABTS Stock Solution
1 tablet (10 mg) was dissolved in phosphate citrate buffer (pH 5.0).
Preparation of ABTS Working Solution
5.0 ml of ABTS stock solution was diluted with PBS to 20 ml.
Preparation of Horse Radish Peroxidase Stock Solution
320 μg of the enzyme was dissolved in 2.5 ml of PBS.
Preparation of Hydrogen Peroxide (1.08 mM) Solution
12 μl of Hydrogen Peroxide (30% w/v) was diluted to 100 ml with PBS. […]
Preparation of ABTS Radical Stock Solution
To 18 ml of ABTS stock solution, 100 μl of Horseradish Peroxidase stock solution was added.
As soon as 1.5 ml of hydrogen peroxide solution was added to the above solution, blue-green colour of the ABTS radicals appeared. This solution was incubated at 30° C. for 30 min.
Preparation of Control Solution
980 μl of ABTS radical stock solution was added to an eppendorf tube. To it was added 100 μl of various PBS solution.
Preparation of test Solution
980 μl of ABTS radical stock solutions were added to different eppendorf tubes. To it were added 100 μl of various concentrations of drug solution.
Measurement of Absorbance (O.D)
The absorbance of control and test samples was recorded immediately at 730 nm taking PBS as blank.
Calculation: The percent antioxidant activity was calculated according to the formula. % Antioxidant activity=[O.D of test sample/O.D of control*100]−100.

T1 sequence (P02769 25-607): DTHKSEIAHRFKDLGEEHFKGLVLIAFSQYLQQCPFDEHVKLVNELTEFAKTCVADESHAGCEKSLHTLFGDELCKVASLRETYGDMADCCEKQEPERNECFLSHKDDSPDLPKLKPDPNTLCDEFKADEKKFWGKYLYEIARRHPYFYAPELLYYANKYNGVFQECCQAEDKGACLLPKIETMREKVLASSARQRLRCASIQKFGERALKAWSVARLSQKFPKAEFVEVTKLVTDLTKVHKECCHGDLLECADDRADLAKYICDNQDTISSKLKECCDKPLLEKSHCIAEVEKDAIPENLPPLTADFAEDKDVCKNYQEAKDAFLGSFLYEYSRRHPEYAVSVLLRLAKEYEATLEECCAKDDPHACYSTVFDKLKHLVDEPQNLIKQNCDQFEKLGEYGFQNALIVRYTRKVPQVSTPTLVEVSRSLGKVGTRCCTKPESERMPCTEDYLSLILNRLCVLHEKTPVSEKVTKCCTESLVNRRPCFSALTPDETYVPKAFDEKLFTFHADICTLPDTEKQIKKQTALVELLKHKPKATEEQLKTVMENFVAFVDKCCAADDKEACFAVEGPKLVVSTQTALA

Row | Compound | % Breakage ([1]; 5 mM test compound) [%] | Relative Free Radical Scavenging Activity (%) on ABTS ([2]; 11.5 μM) [%] | Relative Free Radical Scavenging Activity (%) on ABTS ([2]; 23.0 μM) [%] | Relative Free Radical Scavenging Activity (%) on ABTS ([2]; 46.0 μM) [%] | Relative Free Radical Scavenging Activity (%) on ABTS ([2]; 92.5 μM) [%] | Relative Free Radical Scavenging Activity (%) on ABTS ([2]; 925 μM) [%] | % Breakage ([1]; 10 mM test compound) [%] | % Breakage ([1]; 1 mM test compound) [%] | Relative Free Radical Scavenging Activity (%) on ABTS ([2]; 11.5 μM, listed as Compound No. 64, 11.5 µM) | Relative Free Radical Scavenging Activity (%) on ABTS ([2]; 23.0 μM, listed as Compound No. 64, 23 µM) | Relative Free Radical Scavenging Activity (%) on ABTS ([2]; 46.0 μM, listed as Compound No. 64, 46 µM) | Relative Free Radical Scavenging Activity (%) on ABTS ([2]; 92.5 μM, listed as Compound No. 64, 92.5 µM) | % Breakage ([1]; 2.5 mM test compound) [%]
1 | COCCNC(=O)c1ccc[n+](CC(=O)c2ccc(Cl)cc2Cl)c1.[Br-] [Compound 38, 1-(2′,4′-dichlorophenyl-2-oxoethyl)-3-(2-methoxyethylaminocarbonyl)-pyridinium bromide] | 17.66 | 47.2 | 54.8 | 71.0 | 89.5 | 100 |  |  |  |  |  |  | 
2 | CS(=O)(=O)NNC(=O)c1ccc[n+](CC(=O)c2cccs2)c1.[Cl-] [Compound 45, 1-(2-thien-2′-yl-2-oxoethyl)-3-(methanesulfonyl hydrazinocarbonyl)pyridinium chloride] |  | 53.9 | 56.2 | 78.7 | 99.8 | 100 | 17.53 |  |  |  |  |  | 
3 | CC(C)S(=O)(=O)NNC(=O)c1ccc[n+](CC(=O)c2cccs2)c1.[Br-] [Compound 50, 1-(2-thien-2′-yl-2-oxoethyl)-3-(isopropylsulfonyl hydrazinocarbonyl)pyridinium bromide] |  | 3.30 | 23.06 | 54.95 | 89.31 |  | 31.45 |  |  |  |  |  | 
4 | CS(=O)(=O)NNC(=O)c1ccc[n+](CC(=O)N2CCC(Cc3ccccc3)CC2)c1.[Cl-] [Compound 51, 1-(2-(4-benzylpiperidin-1-yl)-2-oxoethyl)-3-(methanesulfonyl hydrazinocarbonyl)pyridinium chloride] |  | 0.00 | 21.64 | 52.82 | 83.94 |  | 20.94 |  |  |  |  |  | 
5 | CCOC(=O)NNC(=O)c1ccc[n+](CC(=O)c2cccs2)c1.[Br-] [Compound 54, 1-(2-thien-2′-yl-2-oxoethyl)-3-(ethoxycarbonyl hydrazinocarbonyl)pyridinium bromide] |  | 5.22 | 15.45 | 46.82 | 77.07 |  | 33.43 |  |  |  |  |  | 
6 | CS(=O)(=O)NNC(=O)c1ccc[n+](CC(=O)c2ccc(Cl)s2)c1.[Br-] [Compound 55, 1-(2-(5-chlorothien-2-yl)-2-oxoethyl)-3-(methanesulfonyl hydrazinocarbonyl)pyridinium bromide] |  | 46.47 | 84.97 | 99.50 | 99.93 |  | 40.85 |  |  |  |  |  | 
7 | O=C(NNC(=O)c1ccc[n+](CC(=O)c2cc([N+](=O)[O-])cs2)c1)c1ccc[n+](CC(=O)c2cc([N+](=O)[O-])cs2)c1.[Cl-].[Cl-] [Compound 56, N,N′-bis[3-carbonyl-1-(2-(4-nitrothien-2-yl)-2-oxoethyl)pyridinium]hydrazine dichloride] |  | 43.0 | 57.2 | 71.6 | 97.7 | 100 | 75.92 |  |  |  |  |  | 
8 | NC(=O)c1cc(C(=O)NNC(=O)c2ccc[n+](CC(=O)c3cccs3)c2)c[n+](CC(=O)c2cccs2)c1.[Cl-].[Cl-] [Compound 60, 1-[1-(2-thien-2′-yl-2-oxoethyl)-5-aminocarbonyl-3-carbonylpyridinium]-2-[1-(2-Thien-2′-yl-2-oxoethyl)-3-carbonylpyridinium]hydrazine dichloride] |  | 44.1 | 59.8 | 69.4 | 99.9 | 100 |  | 95.36 |  |  |  |  | 
9 | Cc1ccc(C(=O)C[n+]2cccc(C(=O)NNS(C)(=O)=O)c2)s1.[Cl-] [Compound 63, 1-(2-(5-methylthien-2-yl)-2-oxoethyl)-3-(methanesulfonyl hydrazinocarbonyl)pyridinium chloride] |  | 10.75 | 47.20 | 88.64 | 99.18 |  | 25.17 |  |  |  |  |  | 
10 | CS(=O)(=O)NNC(=O)c1ccc[n+](CC(=O)c2cc([N+](=O)[O-])cs2)c1.[Br-] [Compound 64, 1-(2-(4-nitrothien-2-yl)-2-oxoethyl)-3-(methanesulfonyl hydrazinocarbonyl)pyridinium bromide] |  |  |  |  |  | 100 | 60.94 |  | 41.8% and 26.01% | 55.7% and 57.39% | 72.2% and 99.30% | 99.0% and 99.62% | 
11 | O=C(C[n+]1cccc(C(=O)NNc2ccccc2)c1)Nc1ccccc1.[Cl-] [Compound 65, 1-(2-phenylamino-2-oxoethyl)-3-(phenyl hydrazinocarbonyl)pyridinium chloride] |  | 27.67 | 59.20 | 94.14 | 100.00 |  |  |  |  |  |  |  | 68.35
12 | CS(=O)(=O)NNC(=O)c1ccc[n+](CC(=O)c2ccc([N+](=O)[O-])s2)c1.[Cl-] [Compound 67] |  | 13.11 | 50.70 | 97.46 | 99.43 |  |  | 42.01 |  |  |  |  | 
13 | O=C(NNS(=O)(=O)C(F)(F)F)c1ccc[n+](CC(=O)c2cccs2)c1.[Br-] [Compound 68, 1-(2-thien-2′-yl-2-oxoethyl)-3-(trifluoromethanesulfonyl hydrazinocarbonyl)-pyridinium bromide] |  | 38.47 | 43.54 | 89.32 | 95.07 |  | 92.64 |  |  |  |  |  | 
